Measurements taken from ChEMBL document CHEMBL1212704, “Structural and biochemical evidence for a boat-like transition state in beta-mannosidases” (Nat Chem Biol, 2008).

Tests used:
[1] = Inhibition of wild type Bacteroides thetaiotaomicron beta-mannosidase 2A expressed in Escherichia coli BL21 (DE3) at 37 degC and Ph 5.6 by 2,4-dinitrophenolate release assay
[2] = biological target: Beta-mannosidase (Bacteroides thetaiotaomicron (strain ATCC 29148 / DSM 2079 / NCTC10582 / E50 / VPI-5482), UniProt Q8AAK6, N461A)
Sequence of Beta-mannosidase (Bacteroides thetaiotaomicron (strain ATCC 29148 / DSM 2079 / NCTC10582 / E50 / VPI-5482), UniProt Q8AAK6, N461A) (Q8AAK6 26-864 N461A limits assumed): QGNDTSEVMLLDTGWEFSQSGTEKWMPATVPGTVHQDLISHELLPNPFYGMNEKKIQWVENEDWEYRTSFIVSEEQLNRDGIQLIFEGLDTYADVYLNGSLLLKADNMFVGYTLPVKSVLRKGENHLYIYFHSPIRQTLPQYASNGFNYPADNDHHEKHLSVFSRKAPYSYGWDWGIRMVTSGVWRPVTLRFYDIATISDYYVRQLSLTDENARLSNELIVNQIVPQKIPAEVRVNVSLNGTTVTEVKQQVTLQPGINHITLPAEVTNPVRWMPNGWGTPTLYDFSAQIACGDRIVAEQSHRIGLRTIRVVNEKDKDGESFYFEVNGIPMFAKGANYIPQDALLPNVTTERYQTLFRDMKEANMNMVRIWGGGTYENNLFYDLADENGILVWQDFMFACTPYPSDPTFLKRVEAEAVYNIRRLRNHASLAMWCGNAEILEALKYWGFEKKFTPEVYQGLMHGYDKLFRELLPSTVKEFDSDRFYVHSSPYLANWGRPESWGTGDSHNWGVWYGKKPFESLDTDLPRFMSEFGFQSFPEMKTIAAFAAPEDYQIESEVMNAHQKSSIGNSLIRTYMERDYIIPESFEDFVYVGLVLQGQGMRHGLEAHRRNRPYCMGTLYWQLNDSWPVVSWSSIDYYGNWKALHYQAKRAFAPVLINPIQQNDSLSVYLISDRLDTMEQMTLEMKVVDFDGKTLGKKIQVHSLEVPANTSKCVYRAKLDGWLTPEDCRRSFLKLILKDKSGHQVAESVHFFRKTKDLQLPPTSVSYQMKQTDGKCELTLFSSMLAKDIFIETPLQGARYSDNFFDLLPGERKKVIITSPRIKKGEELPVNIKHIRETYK

[3] = biological target: Beta-mannosidase (Bacteroides thetaiotaomicron (strain ATCC 29148 / DSM 2079 / NCTC10582 / E50 / VPI-5482), UniProt Q8AAK6, W645A)
Sequence of Beta-mannosidase (Bacteroides thetaiotaomicron (strain ATCC 29148 / DSM 2079 / NCTC10582 / E50 / VPI-5482), UniProt Q8AAK6, W645A) (Q8AAK6 26-864 W645A limits assumed): as the sequence (Q8AAK6 26-864 N461A limits assumed) above, with A436N, W620A counted along it

[4] = biological target: Beta-mannosidase (Bacteroides thetaiotaomicron (strain ATCC 29148 / DSM 2079 / NCTC10582 / E50 / VPI-5482), UniProt Q8AAK6, W198G)
Sequence of Beta-mannosidase (Bacteroides thetaiotaomicron (strain ATCC 29148 / DSM 2079 / NCTC10582 / E50 / VPI-5482), UniProt Q8AAK6, W198G) (Q8AAK6 26-864 W198G limits assumed): as the sequence (Q8AAK6 26-864 N461A limits assumed) above, with W173G, A436N counted along it

[5] = biological target: Beta-mannosidase (Bacteroides thetaiotaomicron (strain ATCC 29148 / DSM 2079 / NCTC10582 / E50 / VPI-5482), UniProt Q8AAK6, Q646A)
Sequence of Beta-mannosidase (Bacteroides thetaiotaomicron (strain ATCC 29148 / DSM 2079 / NCTC10582 / E50 / VPI-5482), UniProt Q8AAK6, Q646A) (Q8AAK6 26-864 Q646A limits assumed): as the sequence (Q8AAK6 26-864 N461A limits assumed) above, with A436N, Q621A counted along it

[6] = biological target: Beta-mannosidase (Bacteroides thetaiotaomicron (strain ATCC 29148 / DSM 2079 / NCTC10582 / E50 / VPI-5482), UniProt Q8AAK6, W395A)
Sequence of Beta-mannosidase (Bacteroides thetaiotaomicron (strain ATCC 29148 / DSM 2079 / NCTC10582 / E50 / VPI-5482), UniProt Q8AAK6, W395A) (Q8AAK6 26-864 W395A limits assumed): as the sequence (Q8AAK6 26-864 N461A limits assumed) above, with W370A, A436N counted along it

[7] = biological target: Beta-mannosidase (Bacteroides thetaiotaomicron (strain ATCC 29148 / DSM 2079 / NCTC10582 / E50 / VPI-5482), UniProt Q8AAK6, Y537A)
Sequence of Beta-mannosidase (Bacteroides thetaiotaomicron (strain ATCC 29148 / DSM 2079 / NCTC10582 / E50 / VPI-5482), UniProt Q8AAK6, Y537A) (Q8AAK6 26-864 Y537A limits assumed): as the sequence (Q8AAK6 26-864 N461A limits assumed) above, with A436N, Y512A counted along it

[8] = Inhibition of Thermotoga maritima Beta-glucosidase GH1

| Compound | Ki [1] [µM] | Ki [2] [µM] | Ki [3] [µM] | Ki [4] [µM] | Ki [5] [µM] | Ki [6] [µM] | Ki [7] [µM] | other results |
| --- | --- | --- | --- | --- | --- | --- | --- | --- |
| OC[C@@H]1[C@@H](O)[C@H](O)[C@H](O)c2nc(CCc3ccccc3)cn21 | 0.057 | 3.19 | 324 | 14.2 | 0.245 | 47 | 0.71 |  |
| OC[C@@H]1[C@@H](O)[C@H](O)[C@H](O)c2nc(CNc3ccccc3)cn21 |  | 7.28 | 68.1 | 58.5 | 0.311 | 46.6 | 1.54 |  |
| OC[C@@H]1[C@@H](O)[C@H](O)[C@H](O)c2nc(COc3ccccc3)cn21 | 0.401 | 19.1 | 245 | 356 | 0.494 | 284 | 2.65 |  |
| OC[C@@H]1[C@@H](O)[C@H](O)[C@H](O)c2nc(C#Cc3ccccc3)cn21 | 2.4 |  |  |  |  |  |  |  |
| CCC/N=C1\N[C@H](CO)[C@@H](O)[C@H](O)[C@@H]1O | 1.9 | 34.8 | 5700 | 10500 | 71.2 | 1180 | 84 |  |
| OC[C@H]1C[C@H]2[C@@H](O)[C@@H](O)[C@@]1(O)CN2Cc1ccccc1 |  | 3750 | 14400 | 5690 | 121 | 2850 | 233 |  |
| OC[C@H]1C[C@@H]2NC[C@]1(O)[C@H](O)[C@@H]2O | 500 |  |  |  |  |  |  |  |
| OC[C@H]1CNC(O)[C@@H](O)[C@@H]1O (some centres undefined) |  | 641 | 1.11 | 788 | 14 | 40.8 | 19.2 |  |
| O[C@@H]1[C@@H](O)[C@H](O)[C@@]2(O)CC[C@H]1N2 | 11000 |  |  |  |  |  |  |  |
| CC(C)O[C@@H]1O[C@]2(CO)CC[C@]1(O)[C@@H](O)[C@@H]2O | > 400000 |  |  |  |  |  |  |  |
| O[C@H]1[C@H](O)[C@@H](O)CN2CC[C@H](O)[C@H]12 [CASTANOSPERMINE] | 23000 |  |  |  |  |  |  |  |

Now from value to molecule, other results behind:

| Ki [1] [µM] | Compound | Ki [2] [µM] | Ki [3] [µM] | Ki [4] [µM] | Ki [5] [µM] | Ki [6] [µM] | Ki [7] [µM] | other results |
| --- | --- | --- | --- | --- | --- | --- | --- | --- |
| 6000 | CCCCN1C[C@H](O)[C@@H](O)[C@H](O)[C@H]1CO |  |  |  |  |  |  |  |
| 2.1 | NCCC/N=C1\N[C@H](CO)[C@@H](O)[C@H](O)[C@@H]1O |  |  |  |  |  |  |  |
| 2.2 | OCCC/N=C1\N[C@H](CO)[C@@H](O)[C@H](O)[C@@H]1O |  |  |  |  |  |  |  |
| 22 | NCCCC/N=C1\N[C@H](CO)[C@@H](O)[C@H](O)[C@H]1O |  |  |  |  |  |  |  |
| 1000 | OC[C@@H]1[C@@H](O)[C@H](O)[C@H](O)c2nnnn21 |  |  |  |  |  |  | Ki [8]: 0.17 µM |
| 2000 | OC[C@H]1N/C(=N/O)[C@H](O)[C@@H](O)[C@@H]1O |  |  |  |  |  |  |  |
| 9000 | OC[C@H]1CNC[C@@H](O)[C@@H]1O [AFEGOSTAT] |  |  |  |  |  |  |  |
| 14000 | OC[C@H]1NC[C@H](O)[C@@H](O)[C@@H]1O [DUVOGLUSTAT] |  |  |  |  |  |  |  |
| 20000 | OC[C@H]1ONC[C@@H](O)[C@@H]1O [TETRAHYDROOXAZINE] |  |  |  |  |  |  |  |
